In ChEMBL document CHEMBL4033690, “Potential anti-gout constituents as xanthine oxidase inhibitor from the fruits of Stauntonia brachyanthera” (Bioorg Med Chem, 2017):

molecular target: Xanthine dehydrogenase/oxidase (Homo sapiens, UniProt P47989); experiment: Inhibition of xanthine oxidase (unknown origin) using xanthine as substrate preincubated for 15 mins followed by substrate addition by spectrophotometric method
Sequence (P47989 whole entry): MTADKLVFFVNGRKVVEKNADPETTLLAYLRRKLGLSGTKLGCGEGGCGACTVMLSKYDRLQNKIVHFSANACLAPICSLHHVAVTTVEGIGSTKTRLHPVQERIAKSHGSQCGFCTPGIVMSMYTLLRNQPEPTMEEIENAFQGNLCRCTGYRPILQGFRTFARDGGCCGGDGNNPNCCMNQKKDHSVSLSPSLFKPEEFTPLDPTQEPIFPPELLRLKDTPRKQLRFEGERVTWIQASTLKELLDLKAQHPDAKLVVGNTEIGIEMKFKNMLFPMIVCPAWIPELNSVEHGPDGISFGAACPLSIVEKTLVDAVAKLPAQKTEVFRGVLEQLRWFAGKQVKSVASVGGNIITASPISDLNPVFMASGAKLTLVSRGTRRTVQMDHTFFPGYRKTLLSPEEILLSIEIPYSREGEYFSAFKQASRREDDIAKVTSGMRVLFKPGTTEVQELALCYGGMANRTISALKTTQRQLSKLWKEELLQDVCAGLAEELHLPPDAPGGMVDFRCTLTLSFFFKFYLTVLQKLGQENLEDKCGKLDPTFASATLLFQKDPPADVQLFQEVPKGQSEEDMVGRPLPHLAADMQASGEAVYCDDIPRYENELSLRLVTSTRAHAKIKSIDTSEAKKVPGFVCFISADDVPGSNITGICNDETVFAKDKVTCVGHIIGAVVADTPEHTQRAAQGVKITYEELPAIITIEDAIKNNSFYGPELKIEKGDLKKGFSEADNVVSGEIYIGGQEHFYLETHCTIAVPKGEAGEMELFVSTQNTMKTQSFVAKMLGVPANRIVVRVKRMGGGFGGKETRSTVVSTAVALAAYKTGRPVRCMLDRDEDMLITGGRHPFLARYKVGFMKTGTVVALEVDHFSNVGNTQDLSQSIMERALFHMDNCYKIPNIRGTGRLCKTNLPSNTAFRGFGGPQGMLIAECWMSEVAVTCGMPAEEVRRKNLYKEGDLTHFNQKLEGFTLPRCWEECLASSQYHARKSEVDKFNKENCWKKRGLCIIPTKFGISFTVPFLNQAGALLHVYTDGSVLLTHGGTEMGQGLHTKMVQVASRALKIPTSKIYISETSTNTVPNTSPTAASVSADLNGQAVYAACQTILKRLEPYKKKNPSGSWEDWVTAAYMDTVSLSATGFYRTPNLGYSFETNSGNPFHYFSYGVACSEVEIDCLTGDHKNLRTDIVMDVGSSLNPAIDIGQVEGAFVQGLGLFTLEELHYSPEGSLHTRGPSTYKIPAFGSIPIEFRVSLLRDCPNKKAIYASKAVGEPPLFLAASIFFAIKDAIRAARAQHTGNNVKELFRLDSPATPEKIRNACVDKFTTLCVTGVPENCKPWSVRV

| SMILES | IC50 [µM] |
| --- | --- |
| O=c1c(O[C@@H]2O[C@H](CO)[C@@H](O)[C@H](O)[C@H]2O)c(-c2ccc(O)c(O)c2)oc2cc(O)cc(O)c12 [ISOQUERCETIN] | 1.6 |
| COc1cc(C(=O)OC[C@@]2(O)CO[C@@H](O[C@H]3[C@H](Oc4ccc(C(=O)O)cc4OC)O[C@H](CO)[C@@H](O)[C@@H]3O)[C@@H]2O)ccc1O | > 100 |
| C=C1CC[C@]2(C(=O)O[C@@H]3O[C@H](CO[C@@H]4O[C@H](CO)[C@@H](O[C@@H]5O[C@@H](C)[C@H](O)[C@@H](O)[C@H]5O)[C@H](O)[C@H]4O)[C@@H](O)[C@H](O)[C@H]3O)CC[C@]3(C)C(=CC[C@@H]4[C@@]5(C)CC[C@H](O[C@@H]6O[C@H](CO)[C@@H](O)[C@H](O[C@@H]7OC[C@H](O)[C@H](O)[C@H]7O[C@@H]7O[C@@H](C)[C@H](O)[C@@H](O)[C@H]7O)[C@H]6O)C(C)(C)[C@@H]5CC[C@]43C)[C@@H]2C1 | > 100 |
